From the CheMixHub ionic liquid set

Test: xn = mol fraction of the nth substance listed

CCCC[n+]1ccn(C)c1.F[B-](F)(F)F + C1COCCO1
298.15 K, 100 kPa
Settings | electrical conductivity [S/m] | viscosity [mPa·s]
x1 = 0.2559 | 0.403 | 6.011
x1 = 0.3956 | 0.395 | 12.17
x1 = 0.4988 | 0.34 | 19.88
x1 = 0.6 | 0.306 | 29.48
x1 = 0.7021 | – | 42.97
x1 = 0.8993 | 0.252 | 79.5
x1 = 1 | 0.243 | 104.7

CCCC[n+]1ccn(C)c1.F[B-](F)(F)F + C=CC(=O)OC
101 kPa, x1 = 1
Settings | viscosity [mPa·s]
303.15 K | 76.3
313.15 K | 46.2

CCCC[n+]1ccn(C)c1.F[B-](F)(F)F + CC#N
Settings | electrical conductivity [S/m] | viscosity [mPa·s]
298.15 K, 100 kPa, x1 = 0.1059 | 1.25 | 0.879
298.15 K, 100 kPa, x1 = 0.2213 | 1.16 | 2.027
298.15 K, 100 kPa, x1 = 0.3008 | 1.08 | 3.372
298.15 K, 100 kPa, x1 = 0.3894 | 0.782 | 5.548
298.15 K, 100 kPa, x1 = 0.4432 | 0.733 | 7.71
298.15 K, 100 kPa, x1 = 0.6178 | 0.509 | 18.74
298.15 K, 100 kPa, x1 = 0.7111 | 0.374 | 26.09
298.15 K, 100 kPa, x1 = 0.8146 | 0.338 | 41.69
298.15 K, 100 kPa, x1 = 0.9113 | 0.252 | 68.51
298.15 K, 100 kPa, x1 = 1 | 0.243 | 104.7
298.15 K, 101 kPa, x2 = 0 | 0.194 | 116
298.15 K, 101 kPa, x2 = 0.0956 | 0.278 | 80
298.15 K, 101 kPa, x2 = 0.2023 | 0.453 | 50.9
298.15 K, 101 kPa, x2 = 0.3174 | 0.672 | 31
298.15 K, 101 kPa, x2 = 0.4034 | 0.91 | 20.9
298.15 K, 101 kPa, x2 = 0.5137 | 1.34 | 11.9
298.15 K, 101 kPa, x2 = 0.6131 | 1.83 | 6.78
298.15 K, 101 kPa, x2 = 0.7085 | 2.48 | 3.78
298.15 K, 101 kPa, x2 = 0.8093 | 3.1 | 1.91
298.15 K, 101 kPa, x2 = 0.8631 | 3.21 | 1.32
298.15 K, 101.33 kPa, x2 = 0.3999 | – | 17.6
298.15 K, 101.33 kPa, x2 = 0.7988 | – | 1.79
298.15 K, 101.33 kPa, x2 = 0.8988 | – | 0.887
303.15 K, 101 kPa, x2 = 0 | – | 84.2
303.15 K, 101 kPa, x2 = 0.2034 | – | 35.6
313.15 K, 101 kPa, x2 = 0.4013 | – | 11.15
313.15 K, 101 kPa, x2 = 0.6018 | – | 4.33
323.15 K, 101 kPa, x2 = 0 | – | 35.5
323.15 K, 101 kPa, x2 = 0.3011 | – | 12.61
323.15 K, 101 kPa, x2 = 0.5 | – | 5.7
323.15 K, 101 kPa, x2 = 0.7997 | – | 1.221

CCCC[n+]1ccn(C)c1.O=C([O-])C(F)(F)F + CC#N
298.15 K, 101 kPa, x2 = 0.2556
Settings | electrical conductivity [S/m] | viscosity [mPa·s]
– | 0.84 | 24.6

CCC[N+]1(C)CCCC1.O=S(=O)([N-]S(=O)(=O)C(F)(F)F)C(F)(F)F + CC#N
electrical conductivity [S/m], 101 kPa, frequency 0.0005 MHz
Settings | 278.15 K | 288.15 K | 298.15 K | 308.15 K | 318.15 K | 328.15 K
x1 = 0.03242 | 2.26 | 2.44 | 2.63 | 2.78 | 2.91 | 3.13
x1 = 0.09134 | 2.76 | 3.03 | 3.31 | 3.54 | 3.77 | 3.92
x1 = 0.2317 | 2.01 | 2.35 | 2.69 | 2.97 | 3.28 | 3.53

viscosity [mPa·s], 101 kPa
Settings | 278.15 K | 288.15 K | 298.15 K | 308.15 K | 318.15 K | 328.15 K | 338.15 K | 348.15 K | 358.15 K
x1 = 0.03242 | 0.649 | 0.581 | 0.516 | 0.46 | 0.405 | – | – | – | –
x1 = 0.09134 | 1.145 | 0.993 | 0.877 | 0.797 | 0.706 | 0.621 | – | – | –
x1 = 0.2317 | 3.57 | 2.91 | 2.44 | 2.079 | 1.798 | 1.592 | – | – | –
x1 = 1 | 163.6 | 96.2 | 60.6 | 40.8 | 28.9 | 21.3 | 16.29 | 12.82 | 10.34

CCCC[n+]1ccn(C)c1.F[B-](F)(F)F + CC(=O)N(C)C
Settings | electrical conductivity [S/m] | viscosity [mPa·s]
288.15 K, 100 kPa, x1 = 5.846e-05 | 0.003905 | –
288.15 K, 100 kPa, x1 = 0.0006944 | 0.04135 | –
293.15 K, 101 kPa, x1 = 0.7419 | – | 51.8
293.15 K, 101 kPa, x1 = 0.8488 | – | 74
293.15 K, 101 kPa, x1 = 0.9175 | – | 96
293.15 K, 101 kPa, x1 = 1 | – | 125
298.15 K, 100 kPa, x1 = 0.0002592 | 0.01885 | –
298.15 K, 101 kPa, x1 = 0.7419 | – | 44.6
298.15 K, 101 kPa, x1 = 0.8488 | – | 63.1
298.15 K, 101 kPa, x1 = 0.9175 | – | 81
298.15 K, 101 kPa, x1 = 1 | – | 105
303.15 K, 101 kPa, x1 = 0.7419 | – | 36.7
303.15 K, 101 kPa, x1 = 0.8488 | – | 52.7
303.15 K, 101 kPa, x1 = 0.9175 | – | 67
303.15 K, 101 kPa, x1 = 1 | – | 88
308.15 K, 100 kPa, x1 = 5.846e-05 | 0.005095 | –
308.15 K, 100 kPa, x1 = 0.0008703 | 0.06575 | –
308.15 K, 100 kPa, x1 = 0.001047 | 0.07765 | –
308.15 K, 101 kPa, x1 = 0.7419 | – | 29.6
308.15 K, 101 kPa, x1 = 0.8488 | – | 43.4
308.15 K, 101 kPa, x1 = 0.9175 | – | 54.9
308.15 K, 101 kPa, x1 = 1 | – | 72
313.15 K, 101 kPa, x1 = 0.7419 | – | 22.6
313.15 K, 101 kPa, x1 = 0.8488 | – | 33.5
313.15 K, 101 kPa, x1 = 0.9175 | – | 42.9
313.15 K, 101 kPa, x1 = 1 | – | 57.7
313.15 K, 101 kPa, x2 = 0.5002 | – | 9.57
313.15 K, 101 kPa, x2 = 0.8999 | – | 1.434
318.15 K, 101 kPa, x1 = 0.7419 | – | 16.2
318.15 K, 101 kPa, x1 = 0.8488 | – | 24.3
318.15 K, 101 kPa, x1 = 0.9175 | – | 31.8
318.15 K, 101 kPa, x1 = 1 | – | 44
323.15 K, 101 kPa, x1 = 0.7419 | – | 9.8
323.15 K, 101 kPa, x1 = 0.8488 | – | 16.2
323.15 K, 101 kPa, x1 = 0.9175 | – | 22.3
323.15 K, 101 kPa, x1 = 1 | – | 31.6
323.15 K, 101 kPa, x2 = 0.5998 | – | 5.02
323.15 K, 101 kPa, x2 = 0.6996 | – | 3.3
323.15 K, 101 kPa, x2 = 0.8999 | – | 1.253
333.15 K, 101 kPa, x2 = 0.8002 | – | 1.77

CCCC[n+]1ccn(C)c1.O=C([O-])C(F)(F)F + CC(=O)[O-].CCCC[n+]1ccn(C)c1
viscosity [mPa·s], 101 kPa
Settings | 293.15 K | 298.15 K | 303.15 K | 313.15 K | 323.15 K | 333.15 K | 343.15 K | 353.15 K
x2 = 0 | – | – | 58 | 37.8 | 26.1 | 18.89 | 14.47 | 11.25
x2 = 0.2508 | 137.7 | 103 | 78.8 | 49.7 | 33 | 23.2 | 17.33 | 13.18
x2 = 0.4999 | 210 | 152.5 | 113.3 | 66.8 | 42.9 | 29.1 | 20.74 | 15.68
x2 = 0.7487 | 343 | 238 | 171.1 | 94.9 | 57.4 | 37.6 | 25.9 | 18.86

CN(CCO)CCO + CC(=O)[O-].CC[n+]1ccn(C)c1
101 kPa, x2 = 0
Settings | electrical conductivity [S/m] | viscosity [mPa·s]
288.15 K | 0.000224 | –
293.15 K | 0.00029 | –
298.15 K | 0.000397 | –
303.15 K | 0.000528 | –
308.15 K | 0.000675 | –
313.15 K | 0.000896 | –
318.15 K | 0.00113 | –
323.15 K | 0.00144 | –
328.15 K | 0.00187 | 16.9
333.15 K | 0.00236 | –
338.15 K | 0.00295 | 11.56
343.15 K | 0.00365 | 9.79
348.15 K | 0.00455 | –
353.15 K | 0.00556 | –

CC(=O)[O-].C[NH+]1CCCC1 + CC(=O)[O-].Cn1cc[nH+]c1
298.15 K, 100 kPa
Settings | viscosity [mPa·s]
x2 = 0 | 3.78
x2 = 0.1 | 4.87
x2 = 0.19 | 5.35
x2 = 0.31 | 6.23
x2 = 0.4 | 6.46
x2 = 0.5 | 6.78
x2 = 0.59 | 6.74
x2 = 0.71 | 6.59
x2 = 0.8 | 6.47

CCCC[n+]1ccn(C)c1.F[B-](F)(F)F + CC(=O)c1ccccc1
100 kPa, x2 = 0
Settings | viscosity [mPa·s]
293.15 K | 133
303.15 K | 77
313.15 K | 49.1
323.15 K | 33
333.15 K | 23.3
